From patent US12123030B2, “Polynucleotides encoding lipoprotein lipase for the treatment of hyperlipidemia” (ModernaTX, Inc., priority 2016, dated 2024)

What was measured:
[1] = system: IP-10; assay: Cytokine expression after nanoparticle compositions: IP-10; type: in vivo; conditions: 6 h; nanoparticle composition including the compound
[2] = system: IL-6; assay: Cytokine expression after nanoparticle compositions: IL-6; type: in vivo; conditions: 6 h; nanoparticle composition including the compound
[3] = system: ffluc; assay: Average total flux (ffluc) from nanoparticle compositions; type: in vivo; conditions: 6 h
[4] = system: hEPO; assay: hEPO expression from nanoparticle compositions; type: in vivo; conditions: for hEPO expression: nanoparticle composition including the compound; for Average hEPO concentration: Table 9
[5] = system: adult rat; assay: Dose range finding (DRF) study in adult rat; type: in vivo; conditions: one month, one dose per week (5 total doses)
Method: (§1) Dose range finding (DRF) studies using surrogate Compound 18 are in progress to further examine the Compound 18 programs. One month of a DRF study, consisting of one dose per week (5 total doses) in adult rat was performed in order to measure hematology, clinical chemistry, and full pathology. […] Additionally, one month of GLP dose studies, consisting of five doses (one per week) via IV infusion will be administered to rats in order to examine safety pharmacology measures, including central nervous system (rats) and cardiovascular system (monkeys), such as heart rate, blood pressure, and EKG readings. Furthermore, gene toxicity studies were be undertaken, in vitro, using a 4 strain Ames test, and in vitro micronucleous hPBMCs. […] An in vivo mouse micronucleus assay will also be performed to further investigate the Compound 18/5-methoxy uridine (mo5U) modification chemistry.

[6] = system: 4 strain Ames test; assay: 4 strain Ames test; type: cell-based; conditions: in vitro
Method: as §1

[7] = system: triglycerides; conditions: existing hyperlipidemia treatment, patients; cited from earlier work
[8] = system: triglycerides in HTG patients; conditions: existing HTG treatments; cited from earlier work

Row | Cytokine expression IP-10 [1] [pg/mL] | Cytokine expression IL-6 [2] [pg/mL] | clinical chemistry [5] | Structure (SMILES) | Average total flux [3] | hEPO expression ([4]; 3 h) [pg/mL] | Average hEPO concentration ([4]; 6 h) [pg/mL] | hEPO expression ([4]; 6 h) [pg/mL] | hEPO expression ([4]; 24 h) [pg/mL] | adverse events [5] | mutagenic potential (Ames data) [6] | reduction in triglycerides [7] | reduction in triglycerides [8]
1 | 116.66 | 10.15 | – | CCCCC/C=C\C/C=C\CCCCCCCCN(CCO)CCCCCCCC(=O)OC(CCCCCCCC)CCCCCCCC [Compound 6] | 7.60 × 10^9 | – | – | – | – | – | – | – | –
2 | 117.94 | 19.85 | – | CCCCC/C=C\C/C=C\CCCCCCCCC(CCCCCCCC/C=C\C/C=C\CCCCC)OC(=O)CCCN(C)C [MC3] | 6.59 × 10^9 | 1.57e+06 | 1.83e+06 | 1.83e+06 | 810000 | – | – | – | –
3 | 299.93 | 10.16 | normal | CCCCCCCCCOC(=O)CCCCCCCN(CCO)CCCCCCCC(=O)OC(CCCCCCCC)CCCCCCCC [Compound 18, Heptadecan-9-yl 8-((2-hydroxyethyl)(8-(nonyloxy)-8-oxooctyl)amino) octanoate] | – | 3e+06 | 3.38e+06 | – | 1.8e+06 | No adverse events were reported | does not have mutagenic potential | – | –
4 | – | – | – | O=C(O)c1cccnc1 [Nicotinic acid] | – | – | – | – | – | – | – | 15-25% | 15-25%
